According to patent publication US20020169183A1, “Acridines as stimulators for Fas-mediated apoptosis” (priority 2001, published 2002):

Legend:
Hepatocytes = assay: Fas-dependent apoptosis by FACS analysis (DNA fragmentation, propidium iodide; annexin V); assay type: cell-based; conditions: at 10 μM
Procedure: Assays for Fas-dependent apoptosis are known in the art. See, for example, Ruiz-Ruiz et al, Cell Death Diff. 6:271 (1999); and Muller et al., […]. 188:2033 (1998).
Apoptosis is identified by detection of the DNA fragmentation pattern characteristic of apoptotic cell death. In this Example, apoptosis is detected and measured by FACS® analysis carried out in a FACScan® flow cytometer (Becton Dickinson) using CellQuest software. Quantification of DNA fragmentation is performed by FACS® analysis of propidium iodide-stained nuclei as described in Nicolletti et al., J. Immunol. Methods 139:271-279 (1991). Hepatocytes floating in the culture medium are collected by centrifugation at 200× g. Adherent hepatocytes are harvested by incubation with 1% trypsin for 1 min. The cells are washed in phosphate-buffered saline (PBS), suspended in hypotonic lysis buffer (0.1% sodium citrate, 0.1% Triton X, and […] propidium iodide) (Sigma) and incubated at 4° C. for 6 hours. Cells are then analyzed for DNA content by flow cytometry.
Early apoptotic changes are identified using annexin V-Fluos (Boehringer Mannheim) which binds to phosphatidylserine molecules (PS) exposed on apoptotic, but not normal, cell membranes (PS is normally restricted to the inner leaflet of the cell membrane bilayer). […] Cells are incubated for 10-15 min and analyzed on a flow cytometer using CellQuest software. […]

Synoviocytes = assay: Stimulation of Fas-mediated apoptosis: XTT cell viability with anti-human Fas antibody h-HFE7A, stimulation index; assay type: cell-based; conditions: 10 μM compound with h-HFE7A 1000 ng/mL, synoviocytes from rheumatoid arthritis patients, 16 hours
Text: Anti-human Fas antibody h-HFE7A, humanized antibody was obtained from Sankyo Co., Ltd. This antibody induces apoptosis when cross-linked with secondary antibody in vitro.
Samples of human synovium were obtained from rheumatoid arthritis patients at the time of total knee replacement surgery or synoviectomy. Synovial tissue was minced into small pieces and was digested with collagenase and cultured in Ham's F12 medium supplemented with 10% fetal bovine serum (F10F) in a humidified 5% CO2 atmosphere at 37° C. Adherent cells were considered as synoviocytes and were cultivated in F10F.
Cell viability was determined with the XTT method described in Cancer Res. 48:4827 (1988). Ninety-six well flat plates were precoated with anti-human IgG. h-HFE7A (1000 ng/mL) and/or 10 μM of a compound of this invention were added and incubated for 2 hours. Synoviocytes were seeded (10,000/well) and incubated for 16 hours. Background wells received culture medium only. XTT (2,3-Bis[2-methoxy-4-nitro-sulfophenyl]-2H-tetrazolium-5-carboxanilide), final concentration 200 μg/mL, and phenazine methosulfate, final concentration 5 μM, were added to each well, and further incubated for 4 hours. The absorbance at 450 nm was measured and cell viability was determined as follows: [formula]
Enhancement of Fas-mediated apoptosis by compounds of this invention was determined by the stimulation index (SI): [formula] […]

Q: Which “stimulation of Fas-dependent apoptosis” value (Hepatocytes) does the source give for `CCN(CC)CCCNc1c2ccccc2nc2ccccc12` [Compound 3, 9-[(3-diethylaminopropyl)amino]acridine] here?
A: shows stimulation

Q: And the “Enhancement of Fas-mediated apoptosis, stimulation index (SI)” value (Synoviocytes)?
A: positive (An SI over 2.0 was considered positive)
